From ChEMBL document CHEMBL5291721, “A preclinical secondary pharmacology resource illuminates target-adverse drug reaction associations of marketed drugs” (Nat Commun, 2023)

What was measured:
[1] = molecular target: T1, Peroxisome proliferator-activated receptor alpha (Homo sapiens, UniProt Q07869); assay type: functional
T1 sequence (Q07869 whole entry): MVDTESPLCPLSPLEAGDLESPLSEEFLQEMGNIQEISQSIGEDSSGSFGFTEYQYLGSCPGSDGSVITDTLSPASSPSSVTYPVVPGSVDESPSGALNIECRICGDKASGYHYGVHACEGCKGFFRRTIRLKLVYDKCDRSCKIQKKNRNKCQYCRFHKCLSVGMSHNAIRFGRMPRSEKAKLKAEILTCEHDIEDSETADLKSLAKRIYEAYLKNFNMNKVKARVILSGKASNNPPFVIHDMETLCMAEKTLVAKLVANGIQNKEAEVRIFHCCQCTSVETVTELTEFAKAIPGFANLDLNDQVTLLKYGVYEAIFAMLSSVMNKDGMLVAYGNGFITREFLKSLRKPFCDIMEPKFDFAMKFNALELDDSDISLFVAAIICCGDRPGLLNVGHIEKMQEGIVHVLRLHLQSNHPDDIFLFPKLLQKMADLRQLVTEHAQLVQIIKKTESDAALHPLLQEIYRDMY

Estrogen receptor = molecular target: T2, Estrogen receptor (Homo sapiens, UniProt P03372)
T2 sequence (P03372 whole entry): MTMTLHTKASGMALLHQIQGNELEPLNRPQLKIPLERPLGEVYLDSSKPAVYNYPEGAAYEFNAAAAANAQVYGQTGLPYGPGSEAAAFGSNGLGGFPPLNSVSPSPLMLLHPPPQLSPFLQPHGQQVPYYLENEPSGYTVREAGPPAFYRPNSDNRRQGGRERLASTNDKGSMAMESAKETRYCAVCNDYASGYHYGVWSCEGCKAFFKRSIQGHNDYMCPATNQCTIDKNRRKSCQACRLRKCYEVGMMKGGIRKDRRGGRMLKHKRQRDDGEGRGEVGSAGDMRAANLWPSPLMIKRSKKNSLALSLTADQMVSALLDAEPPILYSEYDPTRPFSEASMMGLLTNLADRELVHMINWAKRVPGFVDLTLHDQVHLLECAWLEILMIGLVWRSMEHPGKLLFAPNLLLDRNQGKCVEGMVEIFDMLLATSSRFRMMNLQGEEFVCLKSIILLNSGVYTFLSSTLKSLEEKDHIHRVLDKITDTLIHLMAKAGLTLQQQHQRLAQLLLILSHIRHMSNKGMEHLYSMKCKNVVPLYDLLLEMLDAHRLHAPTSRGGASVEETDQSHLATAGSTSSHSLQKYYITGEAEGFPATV

[2] = molecular target: T3, 5-hydroxytryptamine receptor 1A (Homo sapiens, UniProt P08908)
T3 sequence (P08908 whole entry): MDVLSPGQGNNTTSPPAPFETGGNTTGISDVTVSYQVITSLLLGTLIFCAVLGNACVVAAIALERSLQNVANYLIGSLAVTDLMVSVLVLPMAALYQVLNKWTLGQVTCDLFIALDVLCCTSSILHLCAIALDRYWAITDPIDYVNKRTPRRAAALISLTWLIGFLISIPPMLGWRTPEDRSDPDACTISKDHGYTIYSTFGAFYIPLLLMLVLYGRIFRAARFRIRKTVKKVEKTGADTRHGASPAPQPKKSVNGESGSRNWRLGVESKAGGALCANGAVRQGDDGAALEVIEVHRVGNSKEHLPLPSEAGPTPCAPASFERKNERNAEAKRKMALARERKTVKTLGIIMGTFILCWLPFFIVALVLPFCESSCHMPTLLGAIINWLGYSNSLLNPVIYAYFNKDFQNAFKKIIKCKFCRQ

Prothrombin = Prothrombin (Homo sapiens, UniProt P00734); assay type: functional
[3] = molecular target: T4, Amine oxidase [flavin-containing] A (Homo sapiens, UniProt P21397); assay type: functional
T4 sequence (P21397 whole entry): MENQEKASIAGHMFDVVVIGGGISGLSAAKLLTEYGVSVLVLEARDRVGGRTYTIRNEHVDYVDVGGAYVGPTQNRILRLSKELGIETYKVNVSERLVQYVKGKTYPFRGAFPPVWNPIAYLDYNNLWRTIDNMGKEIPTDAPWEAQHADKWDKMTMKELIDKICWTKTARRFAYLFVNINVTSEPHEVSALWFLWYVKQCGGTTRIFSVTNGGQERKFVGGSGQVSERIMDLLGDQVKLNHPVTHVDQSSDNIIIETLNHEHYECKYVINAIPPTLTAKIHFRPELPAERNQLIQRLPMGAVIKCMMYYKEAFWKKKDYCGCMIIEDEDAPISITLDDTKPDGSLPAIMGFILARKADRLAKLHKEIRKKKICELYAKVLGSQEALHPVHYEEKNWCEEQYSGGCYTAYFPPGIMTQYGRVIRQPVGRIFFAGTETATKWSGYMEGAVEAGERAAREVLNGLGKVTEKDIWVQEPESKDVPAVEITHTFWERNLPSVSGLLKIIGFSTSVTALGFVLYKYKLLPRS

[4] = molecular target: T5, Alpha-2A adrenergic receptor (Homo sapiens, UniProt P08913)
T5 sequence (P08913 whole entry): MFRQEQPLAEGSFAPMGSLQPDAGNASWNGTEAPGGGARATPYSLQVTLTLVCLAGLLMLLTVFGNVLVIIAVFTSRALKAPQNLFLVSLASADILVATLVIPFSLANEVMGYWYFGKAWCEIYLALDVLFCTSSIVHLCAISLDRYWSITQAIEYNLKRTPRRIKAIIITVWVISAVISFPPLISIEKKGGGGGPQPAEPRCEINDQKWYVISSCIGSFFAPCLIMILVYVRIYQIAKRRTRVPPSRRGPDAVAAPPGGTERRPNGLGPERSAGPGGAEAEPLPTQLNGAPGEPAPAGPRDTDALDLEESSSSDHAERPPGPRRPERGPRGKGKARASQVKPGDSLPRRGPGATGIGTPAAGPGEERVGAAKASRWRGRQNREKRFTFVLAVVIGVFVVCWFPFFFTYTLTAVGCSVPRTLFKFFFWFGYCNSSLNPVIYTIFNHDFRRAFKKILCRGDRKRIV

Mu-type opioid receptor = Mu-type opioid receptor (Homo sapiens, UniProt P35372)
Chain of Mu-type opioid receptor (P35372 whole entry): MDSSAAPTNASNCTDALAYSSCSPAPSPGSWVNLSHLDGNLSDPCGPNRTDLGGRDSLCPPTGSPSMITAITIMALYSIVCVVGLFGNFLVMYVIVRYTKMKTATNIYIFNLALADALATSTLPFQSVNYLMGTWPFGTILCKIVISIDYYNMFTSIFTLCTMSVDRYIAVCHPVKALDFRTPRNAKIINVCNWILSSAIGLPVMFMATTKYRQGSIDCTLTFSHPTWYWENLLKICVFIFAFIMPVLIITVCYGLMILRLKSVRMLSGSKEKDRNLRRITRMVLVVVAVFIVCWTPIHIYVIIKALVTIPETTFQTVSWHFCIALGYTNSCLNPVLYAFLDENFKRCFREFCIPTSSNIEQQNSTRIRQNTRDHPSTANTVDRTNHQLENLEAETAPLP

[5] = molecular target: Sodium-dependent noradrenaline transporter (Homo sapiens, UniProt P23975)
Chain of Sodium-dependent noradrenaline transporter (P23975 whole entry): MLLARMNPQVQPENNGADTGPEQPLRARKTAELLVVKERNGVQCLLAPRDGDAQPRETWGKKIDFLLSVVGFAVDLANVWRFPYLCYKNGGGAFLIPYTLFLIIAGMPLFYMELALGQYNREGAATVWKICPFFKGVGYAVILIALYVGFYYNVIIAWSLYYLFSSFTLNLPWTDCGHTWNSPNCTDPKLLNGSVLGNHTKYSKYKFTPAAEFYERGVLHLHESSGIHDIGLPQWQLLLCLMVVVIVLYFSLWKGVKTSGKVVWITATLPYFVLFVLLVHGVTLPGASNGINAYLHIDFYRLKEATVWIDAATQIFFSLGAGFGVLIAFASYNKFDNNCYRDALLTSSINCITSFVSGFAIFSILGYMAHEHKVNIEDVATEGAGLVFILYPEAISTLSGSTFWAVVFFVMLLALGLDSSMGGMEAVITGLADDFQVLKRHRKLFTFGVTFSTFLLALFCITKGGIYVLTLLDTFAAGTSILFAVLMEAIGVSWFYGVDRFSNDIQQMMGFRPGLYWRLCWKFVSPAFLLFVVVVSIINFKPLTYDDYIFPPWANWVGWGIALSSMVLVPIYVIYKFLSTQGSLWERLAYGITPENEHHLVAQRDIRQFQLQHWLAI
Further: assay procedure not described here.

Compound | AC50 [1] [µM] | AC50 (Estrogen receptor) [µM] | AC50 [2] [µM] | AC50 (Prothrombin) [µM] | AC50 [3] [µM] | AC50 [4] [µM] | AC50 (Mu-type opioid receptor) [µM] | AC50 [5] [µM]
CC(C)c1c(C(=O)Nc2ccccc2)c(-c2ccccc2)c(-c2ccc(F)cc2)n1CC[C@@H](O)C[C@@H](O)CC(=O)O [ATORVASTATIN] | > 30 |  |  |  |  |  |  | 
CC(C)(Oc1ccc(C2CC2(Cl)Cl)cc1)C(=O)O (stereo unspecified) [CIPROFIBRATE] | > 30 |  |  |  |  |  |  | 
Nc1nc2ccc(OC(F)(F)F)cc2s1 [RILUZOLE] |  | > 30 | > 30 | > 30 | > 30 | > 30 | > 30 | 2.59
BIVALIRUDIN |  | > 30 | > 30 | 0.0092 | > 30 | > 30 | > 30 | > 30
